The target in one assay is Tubulin. The assay can be described thus: Inhibition of Tubulin polymerization in human HeLa cells assessed as decrease in dynamic tyrosinated microtubules after 2 hrs by microplate reader analysis. In kind it is cell-based.
Assay [1] in a line: Antiproliferative activity against human IC8 cells after 72 hrs by MTT assay. The class given is functional, cell-based. As to conditions: IC8, 72 h.
A further assay relates to MES-SA. The assay can be described thus: Antiproliferative activity against human MES-SA cells after 72 hrs by resazurin assay. In kind it is functional, cell-based.
Assay [2] can be described thus: Inhibition of sheep brain tubulin polymerization incubated at 37 degC for 10 mins and 0 degC for 5 mins by turbidimetry. Also on record: species or system Ovis aries.

SMILES strings stand for the structures. A value given as a limit tells only on which side of the number the result lay.

For `COc1cc(C(=O)c2cc3ccccc3s2)cc(OC)c1OC`, the EC50 on Tubulin was > 10000 nM.
`COc1cc(/C=C\c2ccsc2)cc(OC)c1OC`: at Tubulin, the EC50 is > 10000 nM.
Turning to `COc1cc(/C=C/c2cc3ccccc3s2)cc(OC)c1OC`, on Tubulin, the EC50 turned out to be 3180 nM.
In the case of `COc1cc(/C=C\c2cc3ccccc3s2)cc(OC)c1OC`, the EC50 at Tubulin amounted to 2600 nM; in assay [2], 80 nM. Also, the IC50 in assay [1] is 17 nM; in the assay with MES-SA, 13 nM.
Regarding `C=C(c1cc(OC)c(OC)c(OC)c1)c1csc2ccccc12`, the EC50 at Tubulin was 3900 nM.
Same read-out and setting: in the case of `COc1cc(/C=C\c2cccs2)cc(OC)c1OC` it was > 10000 nM; in that of `C=C(c1cc(OC)c(OC)c(OC)c1)c1cc2ccccc2o1`, > 10000 nM.
For `C=C(c1cc(OC)c(OC)c(OC)c1)c1cc2ccccc2s1`, the EC50 on Tubulin was determined as 321 nM. Also, the results for the IC50 (in assay [1]; in the assay on MES-SA) were 101 nM and 95 nM, respectively.
Regarding `C=C(c1ccsc1)c1cc(OC)c(OC)c(OC)c1`, on Tubulin, the EC50 is > 10000 nM.
For `COc1cc(/C=C\c2csc3ccccc23)cc(OC)c1OC`, the EC50 on Tubulin came to 2430 nM. The IC50 in assay [1] is 288 nM; in the assay on MES-SA, 191 nM.
Take `COc1csc(/C=C\c2cc(OC)c(OC)c(OC)c2)c1`: on Tubulin, the EC50 is 81 nM. Moreover, the 50% inhibitory concentration (IC50) amounted to 27 nM in assay [1] and 25 nM with MES-SA.
Take `COc1cc(C(=O)c2csc3ccccc23)cc(OC)c1OC`: the EC50 at Tubulin is > 10000 nM.
In the case of `C=C(c1cc(OC)c(OC)c(OC)c1)c1cccs1`, the concentration giving a half-maximal response (EC50) on Tubulin was > 10000 nM.
As to `COc1ccc(/C=C\c2cc(OC)c(OC)c(OC)c2)s1`, the EC50 at Tubulin turned out to be 1560 nM. For the same compound, the IC50 in assay [1] was found to be 76 nM; in the assay on MES-SA, 53 nM.
For the compound `COc1cc2c(c(OC)c1OC)-c1ccc(OC)c(=O)cc1[C@@H](NC(C)=O)CC2` [COLCHICINE], the IC50 (in assay [1]; with MES-SA) was 15 nM each time.
Regarding `COc1ccc(/C=C\c2cc(OC)c(OC)c(OC)c2)cc1O` [COMBRETASTATIN A4], the IC50 in assay [1] is 4 nM; in the assay on MES-SA, 3 nM.
